pIC50: −log10 of the molar value. In brackets after ≈: the same amount, converted by molar mass.
Tests used:
CV-1 = assay: Inhibitory effect on Varicella zoster virus in CV-1 cells; type: functional, cell-based, Cercopithecidae; conditions: Chlorocebus aethiops
MT4 = assay: Inhibitory effect on human immunodeficiency virus type-1 (HIV-1) in MT-4 cells; type: functional; conditions: read-out: ID50 (the source's name)

Row | Compound | IC50 (CV-1) | pIC50 (MT4)
1 | O=c1[nH]c(=O)n(C2O[C@H](CO)[C@H](CF)[C@@H]2F)cc1I (some centres not stated) | 5.3 µg/mL (≈ 13.7 µM) | 
2 | Cc1cn([C@H]2C[C@H](F)[C@@H](CO)O2)c(=O)[nH]c1=O [ALOVUDINE] |  | 7.30

Source: ChEMBL document CHEMBL1124907, “Synthesis and antiviral activity of some 3'-C-difluoromethyl and 3'-deoxy-3'-C-fluoromethyl nucleosides” (J Med Chem, 1990)
